Source: patent US20100298299A1, “NON-PEPTIDE DERIVATIVES AS BRADYKININ B1 ANTAGONISTS” (priority 2007, published 2010)
Structures can show the parent of a compound that is named as a salt. Where two headings read alike, the source gives them in different places.

How the values were obtained:
[1] = target: T1, recombinant human B1 receptors (Homo sapiens, UniProt P46663); experiment: Functional assay: antagonist potency by cytosolic calcium measurement in CHO-B1 cells; assay type: cell-based
T1 construct: host or cells: CHO (CHO-B1)
T1 sequence (P46663 1-353): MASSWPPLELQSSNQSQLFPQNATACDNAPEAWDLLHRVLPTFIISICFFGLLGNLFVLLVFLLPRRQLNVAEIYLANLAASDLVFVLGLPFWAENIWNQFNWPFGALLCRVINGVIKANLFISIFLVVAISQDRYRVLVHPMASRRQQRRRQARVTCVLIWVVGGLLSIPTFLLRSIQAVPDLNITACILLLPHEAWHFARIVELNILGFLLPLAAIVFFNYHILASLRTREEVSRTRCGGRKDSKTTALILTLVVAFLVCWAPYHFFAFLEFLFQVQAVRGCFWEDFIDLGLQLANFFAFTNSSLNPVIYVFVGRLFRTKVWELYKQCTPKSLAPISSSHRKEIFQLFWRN
Protocol: Assessment of Antagonist Potency at B1 and B2 Receptors In Vitro by Measurement of Cytosolic Calcium Ion Concentration with a Plate Reader Fluorimeter in Cells Expressing Recombinant Human B1 or B2 Receptors
Chinese hamster ovary (CHO) cells stably expressing recombinant human B1 (CHO-B1, Euroscreen) or B2 (CHO-B2, Perkin-Elmer) receptors were cultured in Dulbecco's Modified Eagle's Medium (DMEM) containing 10% Fetal Calf Serum (FCS), 100 U/ml penicillin, 0.1 mg/ml streptomycin, 0.25 μg/ml amphotericin B, 1% Minimum Essential Medium Eagle (MEM), non essential amino acid solution, 600 μg/ml G418, 1% pyruvate (for the B2 cell line). Cells were kept at 37° C. in a humidified incubator in an atmosphere of 5% CO2/95% air and were passaged 1:4 three times a week. Cells were plated at 1.5−2.5×10^4 cell/well on standard 96-well microplates, measurements of cytosolic calcium ion concentration ([Ca^2+]i) were carried out 1-2 days after cell plating.
Measurements of [Ca^2+]i were carried out on CHO-B1 and CHO-B2 cells stably expressing human B1 and B2 receptors, respectively. Cells were grown in standard 96-well microplates and before the measurement were loaded with a fluorescent Ca^2+-sensitive dye, fluo-4/AM (2 μM): after removing the culture medium the dye was added to the cells (dissolved in assay buffer: 145 mM NaCl, 5 mM KCl, 2 mM MgCl2, 2 mM CaCl2, 10 mM HEPES, 20 mM D-glucose, 2 mM probenecid, 100 μl/well) and cells were incubated at 37° C. in a humidified incubator in an atmosphere of 5% CO2/95% air for 40-120 min. To stop dye loading cells were washed twice with assay buffer. After washing, various concentrations of the test compounds (diluted in extracellular medium from a DMSO stock solution, final DMSO concentration was <0.1%) or buffer were added to each well depending on the experimental setup. After incubation at 37° C. for 20-25 min. baseline and agonist-evoked changes of [Ca^2+]i were measured column by column with a plate reader fluorimeter (Fluoroskan Ascent, Labsystems). Excitation and detection of emission was carried out from the bottom of the plate. Filters used for Fluo-4: excitation filter—485 nm, emission filter—538 nm. The whole measurement process was performed at 37° C. and was controlled by custom software. Inhibitory potency of the test compounds was assessed by measuring the reduction in the agonist-evoked [Ca^2+]i-elevation in the presence of different concentrations of the compounds. The agonists were LysDABK for CHO-B1, and bradykinin for CHO-B2 cells. Agonists were applied at an EC80 concentration, the EC80-values were derived from daily determined dose-response curves. Fluorescence data were expressed as ΔF/F (fluorescence change normalized to baseline). All treatments on a single plate were measured in multiple wells. Data from all wells with the same treatment were averaged and the average values were used for analysis. Inhibitory potency of a compound at a single concentration point was expressed as percent inhibition of the control agonist response. Sigmoidal concentration-inhibition curves were fitted to the data (derived from at least three independent experiments) and IC50-values were determined as the concentration that produces half of the maximal inhibition caused by the compound.

[2] = target: T2, human recombinant bradykinin B1 receptor (Homo sapiens, UniProt P46663); experiment: Human recombinant bradykinin B1 receptor binding
T2 construct: purchased Euroscreen ES-091; host or cells: CHO cells
T2 sequence (P46663 1-353): T1 sequence (P46663 1-353)
Protocol: 1. Human Recombinant Bradykinin B1 Receptor Binding
Binding assays were carried out on human recombinant bradykinin) receptors (expressed in CHO cells) according to the Euroscreen Technical Data Sheet (Cat. No.: ES-091). 20 μg protein/tube was incubated with [3,4-prolyl-3,4-^3H(N)]-[Des-Arg^10] Kallidin as radioligand. Non specific binding was determined in the presence of 10 μM Lys-des-Arg^9-Bradykinin. The final incubation volume was 250 μl. Samples were incubated for 15 min. at 25° C. then were rapidly vacuum filtered through GF/B filters presoaked for at least 1 h in 0.5% PEI. Radioactivity was determined by liquid scintillation spectroscopy.

[3] = CHO-B1 cells, inhibition of LysDABK (EC80)-evoked [Ca2+]i elevation, read-out: B1 func.
[4] = CHO cell membranes, [3H]-[Des-Arg10] Kallidin radioligand, read-out: B1 binding
[5] = reference compounds, functional test, read-out: IC50
[6] = reference compounds, binding test, read-out: Ki

| Compound | IC50 [1, 3] | Ki [2, 4] | IC50 [1, 5] | Ki [2, 6] |
| --- | --- | --- | --- | --- |
| O=C(N[C@@H](Cc1ccc(O)cc1)C(=O)N1CCC(CCN2CCCC2)CC1)c1ccc(S(=O)(=O)Nc2ccccc2Oc2ccccc2)cc1 [Example 32, (S)—N-{1-(4-Hydroxy-benzyl)-2-oxo-2-[4-(2-pyrrolidin-1-yl-ethyl)-piperidin-1-yl]-ethyl}-4-(2-phenoxy-phenylsulfamoyl)-benzamide] | < 0.02 µM | < 0.02 µM | – | – |
| O=C(CNC(=O)c1ccc(S(=O)(=O)Nc2ccccc2Sc2ccccc2)cc1)NCC1CCNCC1 [Example 39, 4-(2-Phenylsulfanyl-phenylsulfamoyl)-N-{[(piperidin-4-ylmethyl)-carbamoyl]-methyl}-benzamide hydrochloride] | < 0.02 µM | < 0.02 µM | – | – |
| O=C(N[C@H](CO)C(=O)N1CCC(CCN2CCCC2)CC1)c1ccc(S(=O)(=O)Nc2ccccc2Oc2ccccc2)cc1 [Example 27, (R)—N-{1-Hydroxymethyl-2-oxo-2-[4-(2-pyrrolidin-1-yl-ethyl)-piperidin-1-yl]-ethyl}-4-(2-phenoxy-phenylsulfamoyl)-benzamide] | < 0.02 µM | < 0.02 µM | – | – |
| CCCN1C(=O)[C@H](NC(=O)Nc2ccc(N3CCC(N4CCCCC4)CC3)cc2)N=C(c2ccc(C)cc2)c2ccccc21 [compound 3, N-[4-(4′-bipiperidin)-1′-ylphenyl]-N′-[(3R)-2,3-dihydro-5-(4-methyl-phenyl)-2-oxo-1-propyl-1H-1,4-benzodiazepin-3-yl]-urea, reference compound] | – | – | 0.0645 µM | 0.0134 µM |
| O=C(NCC(=O)N1CCC(CCN2CCCC2)CC1)c1ccc(S(=O)(=O)Nc2ccccc2Sc2ccccc2)cc1 [Example 2, N-{2-oxo-2-[4-(2-pyrrolidin-1-yl-ethyl)-piperidin-1-yl]-ethyl}-4-(2-phenylsulfanyl-Phenylsulfamoyl)-benzamide] | < 0.02 µM | < 0.02 µM | – | – |
| CN(C)CCN1CCN(C(=O)CNC(=O)c2ccc(S(=O)(=O)Nc3ccccc3Sc3ccccc3)cc2)CC1 [Example 4, N-{2-[4-(2-Dimethylamino-ethyl)-piperazin-1-yl]-2-oxo-ethyl}-4-(2-phenylsulfanyl-phenylsulfamoyl)-benzamide] | 0.02 to 0.1 µM | 0.02 to 0.1 µM | – | – |
| O=C(NCC(=O)N1CCN(CCN2CCOCC2)CC1)c1ccc(S(=O)(=O)Nc2ccccc2Sc2ccccc2)cc1 [Example 9, N-{2-[4-(2-Morpholin-4-yl-ethyl)-piperazin-1-yl]-2-oxo-ethyl}-4-(2-phenylsulfanyl-phenylsulfamoyl)-benzamide] | 0.02 to 0.1 µM | 0.02 to 0.1 µM | – | – |
| O=C(N[C@@H](Cc1ccc(O)cc1)C(=O)N1CCC(CCO)CC1)c1ccc(S(=O)(=O)Nc2ccccc2Oc2ccccc2)cc1 [Example 35, (S)—N-{1-(4-Hydroxy-benzyl)-2-[4-(2-hydroxy-ethyl)-piperidin-1-yl]-2-oxo-ethyl}-4-(2-phenoxy-phenylsulfamoyl)-benzamide] | < 0.02 µM | < 0.02 µM | – | – |
| O=C(N[C@H](Cc1ccc(O)cc1)C(=O)N1CCC(CCN2CCCC2)CC1)c1ccc(S(=O)(=O)Nc2ccccc2Oc2ccccc2)cc1 [Example 31, (R)—N-{1-(4-Hydroxy-benzyl)-2-oxo-2-[4-(2-pyrrolidin-1-yl-ethyl)-piperidin-1-yl]-ethyl}-4-(2-phenoxy-phenylsulfamoyl)-benzamide] | < 0.02 µM | < 0.02 µM | – | – |
| C[C@@H](NC(=O)c1ccc(S(=O)(=O)Nc2ccccc2Oc2ccccc2)cc1)C(=O)N1CCC(CCN2CCCC2)CC1 [Example 1, (R)—N-{1-Methyl-2-oxo-2-[4-(2-pyrrolidin-1-yl-ethyl)-piperidin-1-yl]-ethyl}-4-(2-phenoxy-phenylsulfamoyl)-benzamide] | < 0.02 µM | < 0.02 µM | – | – |
| CN(C)CCCN1CCN(C(=O)CNC(=O)c2ccc(S(=O)(=O)Nc3ccccc3Sc3ccccc3)cc2)CC1 [Example 6, N-{2-[4-(3-Dimethylamino-propyl)-piperazin-1-yl]-2-oxo-ethyl}-4-(2-phenylsulfanyl-phenylsulfamoyl)-benzamide] | 0.02 to 0.1 µM | 0.02 to 0.1 µM | – | – |
| CN1CCN(C(=O)C2CCN(S(=O)(=O)c3ccc(NCC(c4ccccc4)c4ccccc4)c(C(=O)N4CCOCC4)c3)CC2)CC1 [NVP-SAA164, 4-{2-[(2,2-diphenyl-ethyl)-amino]-5-{4-[4-[(4-methyl-1-piperazinyl)-carbonyl]-1-piperidinyl]-sulfonyl}-benzoyl}-morfoline, reference compound] | – | – | 0.033 µM | 0.008 µM |
| O=C(N[C@@H](Cc1ccc(O)cc1)C(=O)N1CCC(O)CC1)c1ccc(S(=O)(=O)Nc2ccccc2Oc2ccccc2)cc1 [Example 34, (S)—N-[1-(4-Hydroxy-benzyl)-2-(4-hydroxy-piperidin-1-yl)-2-oxo-ethyl]-4-(2-phenoxy-phenylsulfamoyl)-benzamide] | < 0.02 µM | < 0.02 µM | – | – |
| O=C(NCC(=O)N1CCC(N2CCCC2)CC1)c1ccc(S(=O)(=O)Nc2ccccc2Sc2ccccc2)cc1 [Example 3, N-[2-Oxo-2-(4-pyrrolidin-1-yl-piperidin-1-yl)-ethyl]-4-(2-phenylsulfanyl-phenylsulfamoyl)-benzamide] | < 0.02 µM | < 0.02 µM | – | – |
| O=C(NCC(=O)N1CCCN(CCCN2CCCC2)CC1)c1ccc(S(=O)(=O)Nc2ccccc2Sc2ccccc2)cc1 [Example 7, N-{2-Oxo-2-[4-(3-pyrrolidin-1-yl-propyl)-[1,4]diazepan-1-yl]-ethyl}-4-(2-phenylsulfanyl-phenylsulfamoyl)-benzamide] | 0.02 to 0.1 µM | 0.02 to 0.1 µM | – | – |
| CN1CCCC(CN2CCN(C(=O)CNC(=O)c3ccc(S(=O)(=O)Nc4ccccc4Sc4ccccc4)cc3)CC2)C1 (centres unmarked) [Example 8, N-{2-[4-(1-Methyl-piperidin-3-ylmethyl)-piperazin-1-yl]-2-oxo-ethyl}-4-(2-phenylsulfanyl-phenylsulfamoyl)-benzamide] | 0.02 to 0.1 µM | 0.02 to 0.1 µM | – | – |
| O=C(N[C@H](Cc1ccc(O)cc1)C(=O)N1CCC(O)CC1)c1ccc(S(=O)(=O)Nc2ccccc2Oc2ccccc2)cc1 [Example 29, (R)—N-[1-(4-Hydroxy-benzyl)-2-(4-hydroxy-piperidin-1-yl)-2-oxo-ethyl]-4-(2-phenoxy-phenylsulfamoyl)-benzamide] | < 0.02 µM | < 0.02 µM | – | – |
| O=C(NCC(=O)N1CCN(CCCN2CCCC2)CC1)c1ccc(S(=O)(=O)Nc2ccccc2Sc2ccccc2)cc1 [Example 5, N-{2-Oxo-2-[4-(3-pyrrolidin-1-yl-propyl)-piperazin-1-yl]-ethyl}-4-(2-phenylsulfanyl-phenylsulfamoyl)-benzamide] | 0.02 to 0.1 µM | 0.02 to 0.1 µM | – | – |
| O=C(N[C@H](Cc1ccc(O)cc1)C(=O)N1CCC(CO)CC1)c1ccc(S(=O)(=O)Nc2ccccc2Oc2ccccc2)cc1 [Example 30, (R)—N-[1-(4-Hydroxy-benzyl)-2-(4-hydroxymethyl-piperidin-1-yl)-2-oxo-ethyl]-4-(2-phenoxy-phenylsulfamoyl)-benzamide] | < 0.02 µM | < 0.02 µM | – | – |
